Consider 2 compounds from patent US20220119375A1, “3-ARYLOXY-3-ARYL-PROPYLAMINE COMPOUND AND USES THEREOF” (Zhangzhou Pien Tze Huang Pharmaceutical Co., Ltd., priority 2018, published 2022).

Like-named read-outs stand apart in the source and are kept apart here.

One assay deals with T1, TRPA1 (Mus musculus, UniProt Q8BLA8).
T1 construct: expressed in transfected cells; host or cells: HEK293
Put plainly: IonWorks Barracuda (IWB) automated patch clamp detection of TRPA1 inhibitory activity. It is filed as cell-based, mouse (mTRPA1). The conditions noted are these: automated patch clamp (IWB). As for the experimental part:
The inhibitory activity of some compounds in the Examples of present invention on transient receptor potential channel protein TRPA1 was tested in this example. The compound of formula A (WO2010075353) was used as a positive control compound: […]
IonWorks Barracuda (IWB) automated patch clamp detection was used as test method: HEK293 cells stably expressing TRPA1 were placed in DMEM medium containing 15 μg/mL Blasticidin S HCl, 200 μg/mL Hygromycin B and 10% FBS in the T175 culture flask, and cultured in 37° C., 5% CO2 incubator. When the cell density reached about 80%, the culture medium was removed, rinsed with phosphate buffered saline (PBS) without calcium and magnesium. 3 mL of Trypsin was added to digest for 2 min, 7 mL of culture medium was added to terminate the digestion. The cells were collected to 15 mL centrifuge tube and centrifuged at 800 rpm for 3 min. After the supernatant was removed, the cells were added to appropriate volume of extracellular fluid for re-suspending, and the cell density was controlled at 2-3×10^6/mL for IWB experiment. Extracellular fluid formulation (in mM): 140 NaCl, 5 KCl, 1 MgCl2, 10 HEPES, 0.5 EGTA, 10 Glucose (pH 7.4); intracellular fluid formulation (in mM): 140 CsCl, 10 HEPES, 5 EGTA, 0.1 CaCl2, 1 MgCl2 (pH 7.2). 28 mg/mL of amphotericin B was freshly prepared with DMSO on the day of experiment, and then final concentration of 0.1 mg/mL was prepared with intracellular fluid.
Population patch clamp (PPC) plate was used in IWB experiment. The entire detection process was automatically carried out by the instrument. Extracellular fluid was added into 384 wells of PPC plate, and 6 µL of the intracellular fluid was added into plenum (under the PPC plate), 6 µL of cell fluid was added for sealing test, and finally the intracellular fluid in plenum was replaced with amphotericin B-containing intracellular fluid to establish a whole-cell recording mode after perforating sealed cells. The sampling frequency for recording TPRA1 current was 10 kHz, the cells were clamped at 0 mV, the voltage stimulation command (channel protocol) was a ramp voltage from −100 mV to +100 mV for 300 ms. This voltage stimulation was applied every 10 s, mTRPA1 current was induced by 300 µM AITC.
Data recording and current amplitude measurement export were carried out by IWB software (version 2.5.3, Molecular Devices Corporation, Union City, Calif.). No statistics was recorded for holes with sealing impedance lower than 20 MΩ. The original current data was corrected by software for leakage reduction. TRPA1 current amplitude was measured at +100 mV. […] If IC50 value of HC030031 exceeded 3 times the average IC50 value previously obtained on each plate, it would be re-tested. The dose-effect curve of compounds and IC50 were fitted and calculated by GraphPad Prism 5.02 (GraphPad Software, San Diego, Calif.).
A general note: Patch clamp records ionic current or voltage across a cell membrane.

The subject of assay [1] is C57BL/6 mice, formalin pain model. The assay is described as follows: mice formalin pain model, dose response (Example 50). In kind it is in vivo, mouse. As to conditions: for Licking time: Phase II, 10-60 min. As for the experimental part:
100 male C57BL/6 mice (9-week aged), were randomly divided into 10 groups to evaluate analgesic activity of two compounds in the mice formalin pain model, and each group had 10 mice. […] Before the start of experiment, the mice were allowed to adapt experimental environment for 72 h with free feeding and drinking water. The test drug was administrated intraperitoneally, and the dosage was as follows:
After administration, the mice were placed in a transparent, ventilated plexiglass cylinder, and 1 h later, 20 μl of 4% formalin solution was injected into the left hind plantar of mice in each group by micro-injector, and claw pain response in mice was recorded in real time by a mini-camera. The time length of licking left claw was used as an indicator of pain response, licking time in 0-10 min (phase I) and 10-60 min (phase II) was observed and recorded, and the statistical analysis was conducted. The half effective dose (ED50) of three compounds was calculated: ED50 referred to the dose of the drug that decreased licking time by half as compared with the blank control group. The smaller the ED50 value was, the lower the effective analgesic dose of the compound was and the stronger the analgesic effect was.

Another assay deals with T2, human TRPA1 channel (Homo sapiens, UniProt O75762).
T2 construct: expressed in transfected cells; host or cells: HEK293
T2 sequence (O75762 whole entry): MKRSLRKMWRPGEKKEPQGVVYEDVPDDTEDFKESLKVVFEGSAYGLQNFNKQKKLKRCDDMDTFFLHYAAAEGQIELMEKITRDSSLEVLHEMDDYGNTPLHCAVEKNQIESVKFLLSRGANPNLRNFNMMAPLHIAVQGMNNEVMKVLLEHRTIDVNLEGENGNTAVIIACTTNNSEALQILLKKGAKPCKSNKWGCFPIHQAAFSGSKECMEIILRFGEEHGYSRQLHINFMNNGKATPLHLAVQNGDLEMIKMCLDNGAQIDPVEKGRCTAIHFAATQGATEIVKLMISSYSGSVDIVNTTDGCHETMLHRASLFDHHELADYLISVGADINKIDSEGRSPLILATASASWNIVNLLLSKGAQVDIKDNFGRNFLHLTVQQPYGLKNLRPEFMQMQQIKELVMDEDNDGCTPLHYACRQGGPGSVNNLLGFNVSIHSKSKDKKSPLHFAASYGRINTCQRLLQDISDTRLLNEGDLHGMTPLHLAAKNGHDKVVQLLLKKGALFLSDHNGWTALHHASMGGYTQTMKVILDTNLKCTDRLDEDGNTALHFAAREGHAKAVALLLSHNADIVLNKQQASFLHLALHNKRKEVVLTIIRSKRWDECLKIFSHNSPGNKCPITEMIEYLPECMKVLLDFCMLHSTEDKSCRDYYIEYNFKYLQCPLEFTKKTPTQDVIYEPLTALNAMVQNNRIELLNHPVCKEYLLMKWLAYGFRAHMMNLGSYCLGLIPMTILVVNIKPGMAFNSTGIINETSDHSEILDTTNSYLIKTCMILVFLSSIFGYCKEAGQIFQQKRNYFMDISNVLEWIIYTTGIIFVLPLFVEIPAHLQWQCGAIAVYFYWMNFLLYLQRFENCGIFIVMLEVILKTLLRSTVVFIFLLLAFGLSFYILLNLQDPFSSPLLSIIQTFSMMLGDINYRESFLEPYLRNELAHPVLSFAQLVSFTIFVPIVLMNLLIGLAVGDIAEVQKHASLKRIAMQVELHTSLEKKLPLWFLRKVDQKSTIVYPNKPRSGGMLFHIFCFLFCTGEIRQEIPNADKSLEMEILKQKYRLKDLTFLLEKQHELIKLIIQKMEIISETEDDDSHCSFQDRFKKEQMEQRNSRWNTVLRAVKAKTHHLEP
The assay is described as follows: manual patch clamp detection of TRPA1 inhibitory activity. It is filed as cell-based. The conditions noted are these: for IC50: HEK293 stably expressing human TRPA1, 100 μM AITC, +100 mV. As for the experimental part: The HEK293 cell line stably expressing human TRPA1 channel was placed in T75 culture flask with DMEM medium containing 15 μg/mL Blasticidin S HCl, 200 μg/mL Hygromycin B and 10% FBS, and cultured in incubator at 37° C. and 5% CO2. When the cell density reached about 80%, the culture medium was removed, the residue was rinsed with phosphate buffered saline (PBS) without calcium and magnesium. 2 mL of trypsin was added to digest for 2 minutes, and 8 mL of culture medium was added to terminate the digestion. The cells were collected to 15 mL centrifuge tube and centrifuged at 800 rpm for 3 min. After the supernatant was removed, an appropriate volume of extracellular fluid was added to re-suspend the cells.
In manual patch clamp detection, HEKA system (Patch Master software) was used together with EPC-10 amplifier to record the whole cell current of TRPA1 stably transfected cell line at room temperature. intracellular fluid formulation for whole cell recording was as follows (mM): 140 CsCl, 10 HEPES, 5 EGTA, 0.1 CaCl2, 1 MgCl2 (pH 7.2, osmotic pressure 295-300 mOsm); Ca^2+-free extracellular fluid formulation for recording was as follows (mM): 140 NaCl, 5 KCl, 0.5 EGTA, 1 MgCl2, 10 Glucose, 10 HEPES (pH 7.4, osmotic pressure 300-310 mOsm). Glass microelectrode resistance used for patch clamp recording was 2-4 MΩ, the sampling frequency was 10 kHz, the filter frequency was 2.9 kHz, the cell clamp was 0 mV, and the voltage stimulation command (channel protocol) was a linear voltage from −100 mV to +100 mV for 300 ms, then restored to 0 mV clamping potential. The recording was performed every 2 s. The hTRPA1 current was induced by 100 μM AITC. To ensure the accuracy of current recording, the series resistance was used for 60% compensation during recording.
Data recording and current amplitude measurement export were completed by Patch Master software. Cells with sealing impedance lower than 500 MΩ, w were not included in the statistics. The original current data were corrected by software for leakage reduction, and the hTRPA1 current amplitude was measured at +100 mV. The compound dose-effect curve and IC50 were fitted and calculated by GraphPad Prism 5.02 (GraphPad Software, San Diego, Calif.).

T1 sequence (Q8BLA8 whole entry): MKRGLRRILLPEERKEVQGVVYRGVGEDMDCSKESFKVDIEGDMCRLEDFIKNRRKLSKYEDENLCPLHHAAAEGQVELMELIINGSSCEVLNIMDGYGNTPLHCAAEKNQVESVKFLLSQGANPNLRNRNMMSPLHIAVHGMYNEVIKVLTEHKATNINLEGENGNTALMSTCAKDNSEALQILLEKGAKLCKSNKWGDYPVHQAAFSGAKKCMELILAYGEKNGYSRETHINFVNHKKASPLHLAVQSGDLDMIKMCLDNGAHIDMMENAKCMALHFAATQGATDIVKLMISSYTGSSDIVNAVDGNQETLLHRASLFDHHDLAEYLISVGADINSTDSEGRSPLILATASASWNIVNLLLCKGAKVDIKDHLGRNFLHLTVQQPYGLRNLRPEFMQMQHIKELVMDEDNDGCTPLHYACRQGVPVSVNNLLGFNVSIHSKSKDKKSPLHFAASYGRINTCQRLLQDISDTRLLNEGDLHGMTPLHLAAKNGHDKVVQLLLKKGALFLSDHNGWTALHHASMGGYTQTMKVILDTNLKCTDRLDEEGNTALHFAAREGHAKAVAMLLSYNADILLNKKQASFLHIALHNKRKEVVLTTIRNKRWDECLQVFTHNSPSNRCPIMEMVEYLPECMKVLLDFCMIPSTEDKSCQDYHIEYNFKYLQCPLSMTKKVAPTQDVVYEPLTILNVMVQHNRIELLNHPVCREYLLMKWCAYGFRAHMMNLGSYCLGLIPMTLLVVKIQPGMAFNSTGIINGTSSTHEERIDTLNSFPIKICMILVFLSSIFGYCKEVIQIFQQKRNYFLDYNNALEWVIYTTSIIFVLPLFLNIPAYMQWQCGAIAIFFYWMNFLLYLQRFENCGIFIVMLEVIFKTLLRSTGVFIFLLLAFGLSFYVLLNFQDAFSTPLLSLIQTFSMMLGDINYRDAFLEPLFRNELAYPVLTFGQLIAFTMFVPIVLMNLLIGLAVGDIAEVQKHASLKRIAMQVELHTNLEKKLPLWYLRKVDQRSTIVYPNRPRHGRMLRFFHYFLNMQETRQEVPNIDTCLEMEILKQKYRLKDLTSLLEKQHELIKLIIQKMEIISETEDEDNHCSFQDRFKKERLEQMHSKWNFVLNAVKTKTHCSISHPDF

What is called IC50 is the concentration at which inhibition is half-maximal. One may read the ED50 as the midpoint of the dose-response relation. A low value points to greater potency. Consider `CNCC[C@H](Oc1cccc2ccccc12)c1cccs1` [Duloxetine (S configuration), Duloxetine], for which the values for the IC50 on TRPA1 (read-out: IC50 on TRPA1) and against human TRPA1 channel were 24.7 µM and 4.36 µM, respectively. Moreover, the “Licking time” value worked out at 259.97 ± 64.44 s in assay [1] (1 mg/kg intraperitoneal), 230.49 ± 41.31 s in assay [1] (5 mg/kg intraperitoneal), 162.83 ± 36.27 s in assay [1] (10 mg/kg intraperitoneal) and 72.27 ± 17.29 s in assay [1] (20 mg/kg intraperitoneal). Further, the ED50 in assay [1] (Mus musculus, ip, intraperitoneal, phase II (10-60 min), dose that decreased licking time by half) was 8 mg/kg.

As to `CNCC[C@H](Oc1cccc2ccoc12)c1cccs1` [Compound IC-1, (S)-3-(benzofuran-7-yloxy)-N-methyl-3-(thiophen-2-yl)propyl-1-amine], the IC50 at TRPA1 (HEK293 cells stably expressing TRPA1, AITC-induced current at +100 mV, read-out: IC50 (μM) on TRPA1 in the patch clamp detection test) is 1 to 5 µM; against human TRPA1 channel it was 0.43 µM. Also, the “decrease of licking time as compared with blank Vehicle” value in assay [1] (1 mg/kg, phase II (10-60 min)) is reported as “more than 50%”. The “ratio of IC50 of S configuration of duloxetine to IC50 of the compound, manual patch clamp” value on human TRPA1 channel (manual patch clamp) was found to be 10.14.
